Active and inactive are the calls of the source.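 The calls were made as follows: active = fitted AC50 at or below twice the top valid dose, with signal falling as dose rises; inconclusive = flat fit between -30 and -70%, or poor fit; inactive = the rest, including rising effects.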
The compounds below were run against Kelch-like ECH-associated protein 1 (Homo sapiens) (UniProt Q14145) (assay: disruptors of Keap1 Kelch-Nrf2 peptide binding – biochemical, fluorescence polarization, dry powder samples, dose response (AID 651798)). Conditions: Keap1 Kelch/FITC-Nrf2 peptide fluorescence polarization.
Chain of Kelch-like ECH-associated protein 1 (Homo sapiens) (Q14145 whole entry, looked up): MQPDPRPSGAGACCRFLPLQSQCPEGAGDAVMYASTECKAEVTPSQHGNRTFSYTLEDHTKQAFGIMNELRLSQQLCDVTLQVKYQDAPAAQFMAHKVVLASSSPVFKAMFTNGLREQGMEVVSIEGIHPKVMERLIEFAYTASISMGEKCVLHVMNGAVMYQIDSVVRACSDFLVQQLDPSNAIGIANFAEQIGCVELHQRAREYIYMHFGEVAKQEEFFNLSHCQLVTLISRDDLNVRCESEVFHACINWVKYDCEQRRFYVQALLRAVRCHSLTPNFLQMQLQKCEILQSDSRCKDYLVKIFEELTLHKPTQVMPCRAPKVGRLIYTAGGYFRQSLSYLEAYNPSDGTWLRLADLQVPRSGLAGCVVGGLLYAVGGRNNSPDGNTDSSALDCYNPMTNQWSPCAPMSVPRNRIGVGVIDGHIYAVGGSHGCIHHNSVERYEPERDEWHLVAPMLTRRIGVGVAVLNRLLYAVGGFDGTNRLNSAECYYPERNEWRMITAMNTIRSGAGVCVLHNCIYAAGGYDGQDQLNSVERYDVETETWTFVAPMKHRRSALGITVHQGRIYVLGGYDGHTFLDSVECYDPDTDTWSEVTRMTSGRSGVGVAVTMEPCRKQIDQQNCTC
O=C(O)C1CCCCC1C(=O)N1CCc2ccccc2C1CN1Cc2ccccc2C1=O (configuration not stated) gave an AC50 of 31.9 µM. With NC(=O)c1ccccc1C(=O)NC[C@@H]1c2ccccc2CCN1C(=O)[C@@H]1CCCC[C@@H]1C(=O)O the AC50 was > 100 µM (inactive).

Same assay, conditions: Keap1 Kelch/FITC-Nrf2 peptide fluorescence polarization; at 50 µM (top of the series)
With O=C(NC[C@@H]1c2ccccc2CCN1C(=O)[C@@H]1CCCC[C@@H]1C(=O)O)c1ccccc1 the “activity change, negative = inhibition” value was “inactive”. With Cc1ccc(S(=O)(=O)NNc2nc(NCC(N)=O)nc3ccccc23)cc1 the “activity change, negative = inhibition” value was “inactive”. In the case of O=C(NCCO)c1ccccc1C(=O)NC[C@@H]1c2ccccc2CCN1C(=O)C1CCCCC1C(=O)O (some centres not stated), the “activity change, negative = inhibition” value is reported as “inactive”. For O=C(O)C1CCCCC1C(=O)NCC1c2ccccc2CCN1C(=O)Cc1ccccc1 (configuration not stated), the “activity change, negative = inhibition” value was “inactive”. In the case of O=C(O)/C=C\C(=O)N1CCc2ccccc2C1CN1C(=O)c2ccccc2C1=O (configuration not stated), the “activity change, negative = inhibition” value is reported as “inactive”.

— PubChem BioAssay AID651798 (Broad Institute, 2012)
